From US5321123A, “Protein S polypeptides and anti-peptide antibodies that inhibit protein S binding to C4B binding protein, diagnostic systems and therapeutic methods” (The Scripps Research Institute, priority 1992, dated 1994)
pIC50, pKd: −log10 of the molar value. Read-outs that look alike come from different tables or passages of the source. Each block holds one compound with its values, some of them ahead of it. Bridge positions count the residues as written; N and C are the ends. Peptide text beside a SMILES is read from it.

Columns and labels:
C4BP = target: T1, C4BP (Homo sapiens, UniProt P04003+P20851); details: read-out: dissociation constant (Kd) for the protein S - C4BP interaction, cited from earlier work
T1 sequence (P04003 49-597): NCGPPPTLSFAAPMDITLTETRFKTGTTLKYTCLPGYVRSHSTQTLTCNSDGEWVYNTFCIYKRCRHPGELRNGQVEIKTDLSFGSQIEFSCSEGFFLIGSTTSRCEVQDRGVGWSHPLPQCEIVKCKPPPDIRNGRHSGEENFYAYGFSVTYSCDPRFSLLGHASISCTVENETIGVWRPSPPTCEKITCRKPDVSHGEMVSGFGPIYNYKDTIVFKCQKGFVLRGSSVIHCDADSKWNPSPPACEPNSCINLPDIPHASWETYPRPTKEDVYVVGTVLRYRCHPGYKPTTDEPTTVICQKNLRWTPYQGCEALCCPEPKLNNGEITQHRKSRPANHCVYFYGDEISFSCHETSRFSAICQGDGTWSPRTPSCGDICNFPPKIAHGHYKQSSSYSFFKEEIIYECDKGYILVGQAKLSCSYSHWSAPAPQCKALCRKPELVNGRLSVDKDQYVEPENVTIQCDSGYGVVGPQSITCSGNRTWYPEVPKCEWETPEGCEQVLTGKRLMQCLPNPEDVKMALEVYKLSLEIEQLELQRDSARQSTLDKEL
T1 sequence (P20851 18-252): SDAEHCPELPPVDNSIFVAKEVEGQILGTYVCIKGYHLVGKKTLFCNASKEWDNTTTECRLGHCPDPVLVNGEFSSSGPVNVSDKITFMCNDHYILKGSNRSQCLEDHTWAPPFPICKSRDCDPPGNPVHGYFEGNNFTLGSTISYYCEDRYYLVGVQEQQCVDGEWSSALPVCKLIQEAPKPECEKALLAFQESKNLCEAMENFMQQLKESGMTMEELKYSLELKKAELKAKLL

PS:C4BP complex [1] = target: T2, PS:C4BP complex (Homo sapiens, UniProt P04003+P20851); assay: Peptide inhibition of b-C4BP binding to PS-coated wells; details: b-C4BP 1 μg/ml, peptide 0-500 μM
T2 construct: Purified human C4BP was obtained from 5 liters (l) of human citrated plasma; from tissue; host or cells: human citrated plasma (C4BP); protein S by the method of Schwarz et al
T2 sequence (P04003 49-597): T1 sequence (P04003 49-597)
T2 sequence (P20851 18-252): T1 sequence (P20851 18-252)
Method: An alternative approach was used to test the ability of the peptides, PSP-loop, PSP-424K and PSP-428K, in comparison with that seen with the PSP-12 peptide, in inhibiting the binding of C4BP to PS. For this assay, the microtiter wells were coated with purified PS diluted to a concentration of 10 μg/ml in carbonate-coating buffer as described above. The wells were maintained to allow the PS to bind to the well walls. After the maintenance period, the wells were blocked also as described above. The selected PSP peptides were separately admixed at various concentrations ranging from 0-500 μM with biotinylated-C4BP (b-C4BP) at a concentration of 1 μg/ml. The admixtures were maintained on a fluid phase plate for 2 hours at room temperature to form peptide-C4BP complexes.
Fifty μl of the complexed admixtures were separately admixed to the prepared […] and maintained for 1 hour at room temperature. Thereafter, the plate was washed and processed for developing as described above.

PS:C4BP complex [2] = target: T2, PS:C4BP complex; assay: Fluid-phase peptide inhibition of b-PS binding to C4BP, detected on anti-C4BP polyclonal antibody-coated plates
Method: (§1) An alternative approach was used to test the ability of the peptides, PSP-loop, PSP-424K and PSP-428K, in comparison with that seen with the PSP-12 peptide, in inhibiting the binding of PS to C4BP, the result of which was detected on polyclonal antibody-coated plates. For this assay, C4BP, biotinylated-PS (b-PS) and PSP peptides were admixed together at the respective concentrations of 3 μg/ml, 0.6 μg/ml and at a range of 0-500 μM (V:V:V). The admixtures were maintained for 2 hours at room temperature on a fluid phase plate to allow the binding and/or inhibition thereof of PS to C4BP by the PS-derived peptides. After the maintenance period, 50 μl of the admixture were separately admixed to wells previously coated with 10 μg/ml of anti-C4BP IgG polyclonal antibody. The admixtures were maintained for 1 hour at room temperature to allow for the binding of C4BP to C4BP-antibody-coated plates. The binding of biotinylated complexes to the antibody-coated plates was detected as described in Example 5Aii.

PS:C4BP complex [3] = target: T2, PS:C4BP complex; assay: Fluid-phase peptide inhibition of PS binding to b-C4BP, detected on MAb S-7-coated plates; details: b-C4BP 0.5 μg/ml, PS 1.0 μg/ml
Method: as §1, with “monoclonal” for “polyclonal”, “biotinylated-C4BP (b-C4BP), PS” for “C4BP, biotinylated-PS (b-PS)”, “0.5” for “3”, “1.0” for “0.6”, “MAb S-7 (ATCC No. HB 80819).” for “anti-C4BP IgG polyclonal antibody.”, “MAb S-7-antibody-coated” for “C4BP-antibody-coated”

PS:C4BP complex [4] = target: T2, PS:C4BP complex; assay: Peptide Inhibition Assay: b-PS binding to C4BP in solid-phase
Method: Each of the peptides produced as described in Example 1 and listed in Table 1 was analyzed for its ability to inhibit the binding of native protein S in liquid-phase to C4BP in solid-phase.
Microtiter wells of a 96 well plate were coated with 50 μl of 10 μg/ml purified C4BP in carbonate buffer (0.02M Na2 CO3, pH 9.0, 0.02% Na-Azide). After blocking with 10% BSA in TBS, 50 μl of different concentrations of peptides diluted in washing buffer (TBS, 0.2% BSA, 5mM CaCl, 0.02% Tween 20) were separately admixed to C4BP-coated wells. After 2 hours at room temperature, 50 μl of a solution of biotinylated protein S, were admixed to each well to form a second binding admixture having a final concentration of 2 μg/ml. The plate was agitated and the samples Were incubated 1 hour at room temperature. The samples were discarded and the wells were washed 3 times with washing buffer. […] The resulting optical densities of the reaction solutions were read as described before in Example 2C. […]
where I is expressed as a percent; and where 100%=delta/min of the amount of b-PS which specifically bound to C4BP-coated wells in the absence of any competing PS-peptide; and where deltaT =the change in absorbance (405 nm) in the presence of competing PS-peptide; and where deltaC =the change in absorbance (405 nm) in the absence of competing PS-peptide.

[5] = target: T3, interaction of protein S with C4BP (Homo sapiens, UniProt P04003+P20851); details: in vitro; Walker et al., Weinstein et al.; cited from earlier work
T3 sequence (P04003 49-597): T1 sequence (P04003 49-597)
T3 sequence (P20851 18-252): T1 sequence (P20851 18-252)

Compound: Protein S: vitamin K-dependent single chain plasma glycoprotein of 75,000 daltons, cofactor to activated protein C
pKd (C4BP; in the presence of Ca++): 9.22
pKd (C4BP; in the presence of EDTA): 9.00

IC90 (PS:C4BP complex [1]): ~250 µM
inhibition of binding of b-PS to C4BP compared with PSP-loop (PS:C4BP complex [2]): inhibitory but with lower effectiveness
IC90 (PS:C4BP complex [3]): ~250 µM
Compound: CC[C@H](C)[C@H](NC(=O)CNC(=O)[C@@H](N)CO)C(=O)N[C@@H](CCCCN)C(=O)N[C@@H](CCCCN)C(=O)N[C@H](C(=O)N[C@H](C(=O)N[C@@H](CCC(N)=O)C(=O)N[C@@H](CCC(=O)O)C(=O)N[C@@H](CCCCN)C(=O)N[C@@H](CCC(N)=O)C(=O)N[C@@H](CC(N)=O)C(=O)N[C@@H](CCCCN)C(=O)N[C@@H](CS)C(N)=O)[C@@H](C)CC)[C@@H](C)CC [PSP-424K, SGIKKIIQEKQNKC] (H-SGIKKIIQEKQNKC-NH2; N-terminus assumed)

inhibition of PS:C4BP complex formation relative to PS-peptides from other regions of protein S (PS:C4BP complex [4]): strong inhibition
Compound: CPEGYRYNLKSKSC [PSP-7]

Compound: CC[C@H](C)[C@@H]1NC(=O)[C@H](CO)NC(=O)[C@H](C)NC(=O)CNC(=O)[C@H](CCC(N)=O)NC(=O)[C@H](CCCCN)NC(=O)[C@H](CCSC)NC(=O)[C@H](CC(C)C)NC(=O)[C@H](CC(N)=O)NC(=O)[C@H](Cc2c[nH]c3ccccc23)NC(=O)[C@H](CO)NC(=O)[C@H](CCCNC(=N)N)NC(=O)[C@H]([C@@H](C)CC)NC(=O)[C@@H](N)CSSC[C@@H](C(N)=O)NC(=O)[C@H](Cc2c[nH]cn2)NC(=O)[C@H](CCCCN)NC(=O)[C@H](CC(N)=O)NC(=O)[C@H](CCC(N)=O)NC(=O)[C@H](CCCCN)NC(=O)[C@H](CCC(=O)O)NC(=O)[C@H](CCC(N)=O)NC(=O)[C@H]([C@@H](C)CC)NC(=O)[C@H]([C@@H](C)CC)NC(=O)[C@H](CCC(=O)O)NC(=O)[C@H](CCCCN)NC1=O [PSP-loop] (H-CIRSWNLMKQGASIKEIIQEKQNKHC-NH2; disulfide 1-26 (inferred); N-terminus and C-terminus assumed)
peptide concentration that completely inhibits the binding of PS to C4BP (PS:C4BP complex [4]; subsequent experiments): approximately 250 μM
pIC50 (PS:C4BP complex [2]; C4BP 3 μg/ml, b-PS 0.6 μg/ml): ~4.40

Compound: CC[C@H](C)[C@H](NC(=O)[C@H](C)NC(=O)[C@H](CCC(=O)O)NC(=O)[C@H](CC(=O)O)NC(=O)[C@H](CC(C)C)NC(=O)[C@H](CC(=O)O)NC(=O)[C@H](CC(C)C)NC(=O)[C@H](CCC(N)=O)NC(=O)[C@@H](NC(=O)CN)C(C)C)C(N)=O [PSP-605, GVQLDLDEAI] (H-GVQLDLDEAI-NH2; N-terminus assumed)
inhibition of the interaction of protein S with C4BP [5]: inhibits the interaction of protein S with C4BP in vitro
